Experimental data as given in patent US12617787B2, “Merged scaffold TAF1 inhibitors” (H. LEE MOFFITT CANCER CENTER AND RESEARCH INSTITUTE, INC., priority 2020, dated 2026).
Entries after “also recorded” stand apart in the source; their conditions may differ.

Key:
TAF1-2 = target: T1, TAF1-2 (Homo sapiens, UniProt P21675); experiment: DSF for TAFi with TAF1-2; assay type: binding; conditions: protein TAF1-2, DMSO = 0
T1 construct: a tandem bromodomain (BD1 and BD2)
T1 sequence (P21675 1519-1628 limits assumed): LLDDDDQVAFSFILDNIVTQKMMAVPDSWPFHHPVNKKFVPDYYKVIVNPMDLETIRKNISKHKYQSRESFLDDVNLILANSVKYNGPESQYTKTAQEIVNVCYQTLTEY

purified FLAG-ATR = target: T2, purified FLAG-ATR (Homo sapiens, UniProt Q13535); experiment: ELISA-based kinase activity: phosphorylation of p53 S15 by purified FLAG-ATR in vitro; assay type: biochemical; conditions: FIG. 3
T2 construct: FLAG
T2 sequence (Q13535 whole entry): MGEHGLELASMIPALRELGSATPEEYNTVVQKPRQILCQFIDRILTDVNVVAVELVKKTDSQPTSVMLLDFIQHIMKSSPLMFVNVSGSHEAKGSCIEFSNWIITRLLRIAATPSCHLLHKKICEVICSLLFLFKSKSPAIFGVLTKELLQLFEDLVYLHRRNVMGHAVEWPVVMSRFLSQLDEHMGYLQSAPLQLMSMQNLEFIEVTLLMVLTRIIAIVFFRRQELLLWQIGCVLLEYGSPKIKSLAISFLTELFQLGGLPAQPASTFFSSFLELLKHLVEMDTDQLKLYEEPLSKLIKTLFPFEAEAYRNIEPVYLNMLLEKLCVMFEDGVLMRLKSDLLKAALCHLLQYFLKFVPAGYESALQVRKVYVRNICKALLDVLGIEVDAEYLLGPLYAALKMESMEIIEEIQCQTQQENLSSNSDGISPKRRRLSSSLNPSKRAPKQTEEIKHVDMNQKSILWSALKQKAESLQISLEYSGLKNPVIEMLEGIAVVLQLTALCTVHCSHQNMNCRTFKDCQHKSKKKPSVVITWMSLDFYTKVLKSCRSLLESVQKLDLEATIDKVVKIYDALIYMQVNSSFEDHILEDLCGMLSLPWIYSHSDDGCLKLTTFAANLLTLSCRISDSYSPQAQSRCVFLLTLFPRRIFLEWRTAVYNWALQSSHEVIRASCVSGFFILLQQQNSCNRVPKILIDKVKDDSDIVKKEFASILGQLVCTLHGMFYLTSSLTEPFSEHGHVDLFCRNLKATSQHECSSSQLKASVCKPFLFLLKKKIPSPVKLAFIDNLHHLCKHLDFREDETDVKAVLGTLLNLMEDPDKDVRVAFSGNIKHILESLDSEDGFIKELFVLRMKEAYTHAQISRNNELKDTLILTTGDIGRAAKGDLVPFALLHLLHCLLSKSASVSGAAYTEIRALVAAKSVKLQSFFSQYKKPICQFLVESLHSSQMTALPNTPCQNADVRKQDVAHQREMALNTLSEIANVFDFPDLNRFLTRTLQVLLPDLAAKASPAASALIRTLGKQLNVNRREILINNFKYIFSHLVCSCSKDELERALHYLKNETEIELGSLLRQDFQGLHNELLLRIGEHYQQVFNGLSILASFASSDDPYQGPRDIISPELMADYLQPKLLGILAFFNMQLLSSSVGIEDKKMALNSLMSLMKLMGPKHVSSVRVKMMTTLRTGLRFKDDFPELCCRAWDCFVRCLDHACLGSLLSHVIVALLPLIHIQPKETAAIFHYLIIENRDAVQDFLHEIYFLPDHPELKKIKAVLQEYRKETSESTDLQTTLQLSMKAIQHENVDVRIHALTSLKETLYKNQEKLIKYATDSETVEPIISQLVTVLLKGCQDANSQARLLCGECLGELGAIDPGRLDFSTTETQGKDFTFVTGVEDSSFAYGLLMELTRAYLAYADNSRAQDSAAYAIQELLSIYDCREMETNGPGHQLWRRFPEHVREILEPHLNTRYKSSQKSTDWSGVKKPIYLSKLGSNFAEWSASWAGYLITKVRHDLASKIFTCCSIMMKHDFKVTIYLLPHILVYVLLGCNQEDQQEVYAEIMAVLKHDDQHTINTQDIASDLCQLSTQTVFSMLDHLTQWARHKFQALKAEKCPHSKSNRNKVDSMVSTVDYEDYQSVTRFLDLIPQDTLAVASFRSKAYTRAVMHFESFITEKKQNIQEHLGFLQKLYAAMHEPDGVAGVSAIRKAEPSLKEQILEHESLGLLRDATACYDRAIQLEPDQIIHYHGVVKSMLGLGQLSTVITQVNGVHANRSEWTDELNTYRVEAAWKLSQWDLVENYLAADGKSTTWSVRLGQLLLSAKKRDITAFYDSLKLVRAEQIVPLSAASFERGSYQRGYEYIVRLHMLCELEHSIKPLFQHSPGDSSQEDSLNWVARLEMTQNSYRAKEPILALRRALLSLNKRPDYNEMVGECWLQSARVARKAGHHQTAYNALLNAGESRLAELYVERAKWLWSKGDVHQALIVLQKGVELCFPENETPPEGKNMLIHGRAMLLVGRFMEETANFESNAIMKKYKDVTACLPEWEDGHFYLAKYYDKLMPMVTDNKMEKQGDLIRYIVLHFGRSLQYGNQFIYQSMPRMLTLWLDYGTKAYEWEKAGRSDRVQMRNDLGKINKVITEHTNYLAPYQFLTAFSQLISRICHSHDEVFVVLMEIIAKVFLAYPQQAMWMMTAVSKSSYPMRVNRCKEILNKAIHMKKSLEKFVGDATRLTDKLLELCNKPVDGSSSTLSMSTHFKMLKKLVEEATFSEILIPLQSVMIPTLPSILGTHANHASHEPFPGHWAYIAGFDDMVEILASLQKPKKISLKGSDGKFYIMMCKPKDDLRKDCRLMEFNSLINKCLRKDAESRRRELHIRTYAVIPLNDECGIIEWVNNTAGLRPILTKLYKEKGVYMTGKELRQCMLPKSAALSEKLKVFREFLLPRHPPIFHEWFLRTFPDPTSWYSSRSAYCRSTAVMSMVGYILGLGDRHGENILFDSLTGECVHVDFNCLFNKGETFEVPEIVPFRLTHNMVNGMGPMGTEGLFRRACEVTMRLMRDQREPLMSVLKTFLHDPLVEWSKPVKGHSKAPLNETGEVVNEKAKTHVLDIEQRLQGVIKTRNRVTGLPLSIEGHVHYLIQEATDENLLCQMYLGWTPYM
From the text: ELISA-based kinase activity was used to test the ability of compounds to inhibit phosphorylation of p53 S15 by purified FLAG-ATR in vitro.

[1] = tested on: HCT116 cells with and without p53; experiment: Western blot of marker expression (p21) in HCT116 cells with and without p53; assay type: cell-based; conditions: HCT116 cells with and without p53, treated 30 hrs, FIG. 4
Experimental: HCT116 cells with and without p53 were treated with compounds for 30 hrs. Expression levels of indicated markers were determined by western blot.

SMILES	ATm + SEM (° C.) (TAF1-2) [°C]	inhibition of ATR (phosphorylation of p53 S15) (purified FLAG-ATR)	p53-mediated p21 expression [1]
C[C@@H]1COCCN1c1cc(C2([S@](C)(=N)=O)CC2)nc(-c2cc[nH]c3nccc2-3)n1 [AZD6738]	3.4 ± 0.1	–	–
C=CCCn1cc(-c2cc(C(=O)N3CCOCC3)cc3c2ncn3C)c2cc[nH]c2c1=O [GNE-371, reference compound]	–	absence of inhibition	–
C=CCCn1cc(-c2cc(C3([S@](C)(=N)=O)CC3)nc(-c3ccnc4[nH]ccc34)n2)c2cc[nH]c2c1=O [ZS1-681]	–	does not inhibit ATR; also recorded: absence of inhibition	induces p53-mediated p21 expression
